Experimental data as given in article PMC8481687, “Anti-diabetic Potential of a Stigmasterol From the Seaweed Gelidium spinosum and Its Application in the Formulation of Nanoemulsion Conjugate for the Development of Functional Biscuits” (Frontiers in Nutrition, 2021).
≈ marks a conversion by molar mass, not a printed value.

Biological target: α-amylase
Assay: starch hydrolysis, dinitrosalicylic acid assay at […] nm
Assay type: biochemical

Work on `CC[C@H](/C=C/[C@@H](C)[C@H]1CC[C@H]2[C@@H]3CC=C4C[C@@H](O)CC[C@]4(C)[C@H]3CC[C@]12C)C(C)C` [stigmasterol] yielded an IC50 of 89.27 µg/mL (≈ 216 µM).
